Test results taken from EP0353754A2, “Radioactively marked benzodiazepin derivates” (F. HOFFMANN-LA ROCHE AG, priority 1988, dated 1990).
Where two headings read alike, the source gives them in different places.

Test: Organ distribution of injected radioactivity in rats after I.V. injection
Assay type: in vivo, Ratten (weiblich, Wistar, spf)
Details: Ratte; for tissue uptake at 2 min / tissue uptake at 10 min / tissue uptake at 20 min / tissue uptake at 40 min / tissue uptake at 1 h / tissue uptake at 6 h / tissue uptake at 15 h: rat, iv, read-out: Prozent der injizierten Aktivität pro Gramm des entsprechenden Organs; for tissue uptake at 1 h: 60′
Protocol: Es werden je 3 Ratten (weiblich, Wistar, spf) zu sieben verschiedenen Zeitpunkten (2′, 10′, 20′, 40′, 1h, 6h, 15h) gemessen. Das Gewicht der Tiere lag zwischen 113 und 144 g. Die Fütterung erfolgte ad libitum. Die I.V. injizierten Dosen variierten von 184 bis 355 µCi in jeweils 0,2 ml.

SMILES: CCOC(=O)c1ncn2c1CN(C)C(=O)c1c([123I])cccc1-2 [Aethyl-7-¹²³Jod-5,6-dihydro-5-methyl-6-oxo-4H-imidazo[1,5-a][1,4]benzodiazepin-3-carboxylat]
- Prozent der injizierten Aktivität in den entsprechend Organen (Totalkörper, 15h): 2,80 Prozent der injizierten Aktivität
- tissue uptake at 2 min (bladder, Blase): 0.59 %ID/g
- tissue uptake at 10 min (bladder, Blase): 1.07 %ID/g
- tissue uptake at 20 min (bladder, Blase): 0.69 %ID/g
- tissue uptake at 40 min (bladder, Blase): 0.24 %ID/g
- tissue uptake at 1 h (bladder, Blase): 0.42 %ID/g
- tissue uptake at 6 h (bladder, Blase): 0.57 %ID/g
- tissue uptake at 15 h (bladder, Blase, 15h): 0.023 %ID/g
- tissue uptake at 2 min (blood, Blut): 0.7 %ID/g
- tissue uptake at 10 min (blood, Blut): 0.87 %ID/g
- tissue uptake at 20 min (blood, Blut): 0.46 %ID/g
- tissue uptake at 40 min (blood, Blut): 0.17 %ID/g
- tissue uptake at 1 h (blood, Blut): 0.11 %ID/g
- tissue uptake at 6 h (blood, Blut): 0.04 %ID/g
- tissue uptake at 15 h (blood, Blut, 15h): 0.013 %ID/g
- tissue uptake at 2 min (brain, Hirn): 2.12 %ID/g
- tissue uptake at 10 min (brain, Hirn): 3.22 %ID/g
- tissue uptake at 20 min (brain, Hirn): 2.99 %ID/g
- tissue uptake at 40 min (brain, Hirn): 2.7 %ID/g
- tissue uptake at 1 h (brain, Hirn): 1.8 %ID/g
- tissue uptake at 6 h (brain, Hirn): 0.05 %ID/g
- tissue uptake at 15 h (brain, Hirn, 15h): 0.001 %ID/g
- tissue uptake at 2 min (heart, Herz): 0.86 %ID/g
- tissue uptake at 10 min (heart, Herz): 0.66 %ID/g
- tissue uptake at 20 min (heart, Herz): 0.3 %ID/g
- tissue uptake at 40 min (heart, Herz): 0.1 %ID/g
- tissue uptake at 1 h (heart, Herz): 0.06 %ID/g
- tissue uptake at 6 h (heart, Herz): 0.02 %ID/g
- tissue uptake at 15 h (heart, Herz, 15h): 0.007 %ID/g
- tissue uptake at 2 min (intestine, Darm): 0.75 %ID/g
- tissue uptake at 10 min (intestine, Darm): 1.1 %ID/g
- tissue uptake at 20 min (intestine, Darm): 1.73 %ID/g
- tissue uptake at 40 min (intestine, Darm): 2.02 %ID/g
- tissue uptake at 1 h (intestine, Darm): 1.97 %ID/g
- tissue uptake at 6 h (intestine, Darm): 1.55 %ID/g
- tissue uptake at 15 h (intestine, Darm, 15h): 0.143 %ID/g
- tissue uptake at 2 min (Femur): 0.54 %ID/g
- tissue uptake at 10 min (Femur): 0.45 %ID/g
- tissue uptake at 20 min (Femur): 0.24 %ID/g
- tissue uptake at 40 min (Femur): 0.1 %ID/g
- tissue uptake at 1 h (Femur): 0.07 %ID/g
- tissue uptake at 6 h (Femur): 0.02 %ID/g
- tissue uptake at 15 h (Femur, 15h): 0.007 %ID/g
- tissue uptake at 2 min (kidney, Nieren): 2.68 %ID/g
- tissue uptake at 10 min (kidney, Nieren): 7.06 %ID/g
- tissue uptake at 20 min (kidney, Nieren): 5.26 %ID/g
- tissue uptake at 40 min (kidney, Nieren): 1.35 %ID/g
- tissue uptake at 1 h (kidney, Nieren): 0.68 %ID/g
- tissue uptake at 6 h (kidney, Nieren): 0.03 %ID/g
- tissue uptake at 15 h (kidney, Nieren, 15h): 0.01 %ID/g
- tissue uptake at 2 min (liver, Leber): 2.38 %ID/g
- tissue uptake at 10 min (liver, Leber): 5.66 %ID/g
- tissue uptake at 20 min (liver, Leber): 2.62 %ID/g
- tissue uptake at 40 min (liver, Leber): 0.58 %ID/g
- tissue uptake at 1 h (liver, Leber): 0.19 %ID/g
- tissue uptake at 6 h (liver, Leber): 0.02 %ID/g
- tissue uptake at 15 h (liver, Leber, 15h): 0.016 %ID/g
- tissue uptake at 2 min (lung, Lunge): 1.22 %ID/g
- tissue uptake at 10 min (lung, Lunge): 0.87 %ID/g
- tissue uptake at 20 min (lung, Lunge): 0.44 %ID/g
- tissue uptake at 40 min (lung, Lunge): 0.15 %ID/g
- tissue uptake at 1 h (lung, Lunge): 0.1 %ID/g
- tissue uptake at 6 h (lung, Lunge): 0.03 %ID/g
- tissue uptake at 15 h (lung, Lunge, 15h): 0.011 %ID/g
- tissue uptake at 2 min (muscle, Muskel): 0.68 %ID/g
- tissue uptake at 10 min (muscle, Muskel): 0.42 %ID/g
- tissue uptake at 20 min (muscle, Muskel): 0.2 %ID/g
- tissue uptake at 40 min (muscle, Muskel): 0.09 %ID/g
- tissue uptake at 1 h (muscle, Muskel): 0.04 %ID/g
- tissue uptake at 6 h (muscle, Muskel): 0.01 %ID/g
- tissue uptake at 15 h (muscle, Muskel, 15h): 0.003 %ID/g
- tissue uptake at 2 min (ovary, Ovar): 0.88 %ID/g
- tissue uptake at 10 min (ovary, Ovar): 0.73 %ID/g
- tissue uptake at 20 min (ovary, Ovar): 0.53 %ID/g
- tissue uptake at 40 min (ovary, Ovar): 0.22 %ID/g
- tissue uptake at 1 h (ovary, Ovar): 0.16 %ID/g
- tissue uptake at 6 h (ovary, Ovar): 0.03 %ID/g
- tissue uptake at 15 h (ovary, Ovar, 15h): 0.011 %ID/g
- tissue uptake at 2 min (spleen, Milz): 0.6 %ID/g
- tissue uptake at 10 min (spleen, Milz): 0.53 %ID/g
- tissue uptake at 20 min (spleen, Milz): 0.29 %ID/g
- tissue uptake at 40 min (spleen, Milz): 0.14 %ID/g
- tissue uptake at 1 h (spleen, Milz): 0.07 %ID/g
- tissue uptake at 6 h (spleen, Milz): 0.02 %ID/g
- tissue uptake at 15 h (spleen, Milz, 15h): 0.01 %ID/g
- tissue uptake at 2 min (stomach, Magen): 0.19 %ID/g
- tissue uptake at 10 min (stomach, Magen): 0.41 %ID/g
- tissue uptake at 20 min (stomach, Magen): 0.35 %ID/g
- tissue uptake at 40 min (stomach, Magen): 0.27 %ID/g
- tissue uptake at 1 h (stomach, Magen): 0.48 %ID/g
- tissue uptake at 6 h (stomach, Magen): 0.73 %ID/g
- tissue uptake at 15 h (stomach, Magen, 15h): 0.08 %ID/g
- tissue uptake at 2 min (thyroid, Schilddrüse): 0.6 %ID/g
- tissue uptake at 10 min (thyroid, Schilddrüse): 0.54 %ID/g
- tissue uptake at 20 min (thyroid, Schilddrüse): 1.22 %ID/g
- tissue uptake at 40 min (thyroid, Schilddrüse): 0.08 %ID/g
- tissue uptake at 1 h (thyroid, Schilddrüse): 0.06 %ID/g
- tissue uptake at 6 h (thyroid, Schilddrüse): 0.03 %ID/g
- tissue uptake at 15 h (thyroid, Schilddrüse, 15h): 0.007 %ID/g
